Laboratory results as given in US20240132431A1, “METHOD FOR ALKYLATING ACIDIC FUNCTIONAL GROUP” (Chugai Seiyaku Kabushiki Kaisha, priority 2021, published 2024).

Biological target: T1, Bcl-2 protein (Recombinant Human Bcl-2 Protein) (Homo sapiens, UniProt P10415)
T1 construct: purchased Novus NBP2-34889
Assay: Binding evaluation of mixture library compounds to Bcl-2 using AS-MS (affinity selection mass spectrometry)
Summary of the method: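 ASMS Ratio (%) was calculated as (A−C)/B×100, where A is the protein sample after SEC, B the protein-free sample without SEC and C the protein-free sample after SEC. Each compound was at […] in a 1200-member pool with 20 μM Bcl-2, incubated 1 h at 23° C.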

T1 sequence (P10415 whole entry): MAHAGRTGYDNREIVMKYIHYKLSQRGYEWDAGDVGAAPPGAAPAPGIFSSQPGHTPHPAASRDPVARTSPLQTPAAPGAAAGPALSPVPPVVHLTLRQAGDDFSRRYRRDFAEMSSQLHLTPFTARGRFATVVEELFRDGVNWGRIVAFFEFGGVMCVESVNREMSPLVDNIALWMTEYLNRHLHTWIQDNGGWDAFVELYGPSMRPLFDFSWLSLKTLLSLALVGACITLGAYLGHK

`CCOc1cccc(-c2ccc(CN3CCN(c4ccc(C(=O)NS(=O)(=O)C(C)(C)C)nn4)CC3)cc2F)c1` [B2L077-01, N-tert-Butylsulfonyl-6-[4-[[4-(3-ethoxyphenyl)-3-fluorophenyl]methyl]piperazin-1-yl]pyridazine-3-carboxamide] was tested, and the “ASMS ratio (%)” value (n = 1) was 0.0% and the “ASMS ratio (%)” value (n = 2) was 0.0%.

With `CCOc1cncc(-c2ccc(CN3CCN(c4ccc(C(=O)NS(=O)(=O)C(C)(C)C)nn4)CC3)cc2F)c1` [B2L078-01] the “ASMS ratio (%)” value (n = 1) was 1.1% and the “ASMS ratio (%)” value (n = 2) was −0.7%.

In the case of `CCOc1cccc(-c2cc(CN3CCN(c4ccc(C(=O)NS(=O)(=O)C(C)(C)C)nn4)CC3)cc(OCC)c2)c1` [B2L081-01, N-tert-Butylsulfonyl-6-[4-[[3-ethoxy-5-(3-ethoxyphenyl)phenyl]methyl]piperazin-1-yl]pyridazine-3-carboxamide], the “ASMS ratio (%)” value (n = 1) is reported as 0.0% and the “ASMS ratio (%)” value (n = 2) is reported as 0.0%.

`CCOc1cncc(-c2cc(CN3CCN(c4ccc(C(=O)NS(=O)(=O)C(C)(C)C)nn4)CC3)cc(OCC)c2)c1` [B2L082-01, N-tert-Butylsulfonyl-6-[4-[[3-ethoxy-5-(5-ethoxypyridin-3-yl)phenyl]methyl]piperazin-1-yl]pyridazine-3-carboxamide] was tested, and the “ASMS ratio (%)” value (n = 1) was 2.6% and the “ASMS ratio (%)” value (n = 2) was −1.2%.

In the case of `CCOc1cccc(-c2cc(CN3CCN(c4ccc(C(=O)NS(=O)(=O)C(C)(C)C)nn4)CC3)cc(OC(C)C)c2)c1` [B2L083-01, N-tert-Butylsulfonyl-6-[4-[[3-(3-ethoxyphenyl)-5-propan-2-yloxyphenyl]methyl]piperazin-1-yl]pyridazine-3-carboxamide], the “ASMS ratio (%)” value (n = 1) is reported as 0.0% and the “ASMS ratio (%)” value (n = 2) is reported as 0.0%.

For `CCOc1cncc(-c2cc(CN3CCN(c4ccc(C(=O)NS(=O)(=O)C(C)(C)C)nn4)CC3)cc(OC(C)C)c2)c1` [B2L084-01, N-tert-Butylsulfonyl-6-[4-[[3-(5-ethoxypyridin-3-yl)-5-propan-2-yloxyphenyl]methyl]piperazin-1-yl]pyridazine-3-carboxamide], the “ASMS ratio (%)” value (n = 1) was −3.0% and the “ASMS ratio (%)” value (n = 2) was −1.9%.

With `CCOc1cccc(-c2cc(OC)c(CN3CCN(c4ccc(C(=O)NS(=O)(=O)C(C)(C)C)nn4)CC3)c(OC)c2)c1` [B2L085-01, N-tert-Butylsulfonyl-6-[4-[[4-(3-ethoxyphenyl)-2,6-dimethoxyphenyl]methyl]piperazin-1-yl]pyridazine-3-carboxamide] the “ASMS ratio (%)” value (n = 1) was 0.0% and the “ASMS ratio (%)” value (n = 2) was 0.0%.

For `CCOc1cccc(-c2cc(CN3CCN(c4ccc(C(=O)NS(=O)(=O)C(C)(C)C)nn4)CC3)cc(C(F)(F)F)c2)c1` [B2L087-01, N-tert-Butylsulfonyl-6-[4-[[3-(3-ethoxyphenyl)-5-(trifluoromethyl)phenyl]methyl]piperazin-1-yl]pyridazine-3-carboxamide], the “ASMS ratio (%)” value (n = 1) was 1.9% and the “ASMS ratio (%)” value (n = 2) was −24.6%.

In the case of `CCOc1cncc(-c2cc(CN3CCN(c4ccc(C(=O)NS(=O)(=O)C(C)(C)C)nn4)CC3)cc(C(F)(F)F)c2)c1` [B2L088-01, N-tert-Butylsulfonyl-6-[4-[[3-(5-ethoxypyridin-3-yl)-5-(trifluoromethyl)phenyl]methyl]piperazin-1-yl]pyridazine-3-carboxamide], the “ASMS ratio (%)” value (n = 1) is reported as 0.0% and the “ASMS ratio (%)” value (n = 2) is reported as 2.8%.

In the case of `CCOc1cccc(-c2cc(CN3CCN(c4ccc(C(=O)NS(=O)(=O)C(C)(C)C)nn4)CC3)cc(OC(F)(F)F)c2)c1` [B2L089-01, N-tert-Butylsulfonyl-6-[4-[[3-(3-ethoxyphenyl)-5-(trifluoromethoxy)phenyl]methyl]piperazin-1-yl]pyridazine-3-carboxamide], the “ASMS ratio (%)” value (n = 1) is reported as 0.0% and the “ASMS ratio (%)” value (n = 2) is reported as 0.0%.

With `CCOc1cncc(-c2cc(CN3CCN(c4ccc(C(=O)NS(=O)(=O)C(C)(C)C)nn4)CC3)cc(OC(F)(F)F)c2)c1` [B2L090-01, N-tert-Butylsulfonyl-6-[4-[[3-(5-ethoxypyridin-3-yl)-5-(trifluoromethoxy)phenyl]methyl]piperazin-1-yl]pyridazine-3-carboxamide] the “ASMS ratio (%)” value (n = 1) was 0.0% and the “ASMS ratio (%)” value (n = 2) was 0.0%.

`CCOc1cccc(-c2ccc(CN3CCN(c4ccc(C(=O)NS(=O)(=O)C(C)(C)C)nn4)CC3)c3ccccc23)c1` [B2L091-01, N-tert-Butylsulfonyl-6-[4-[[4-(3-ethoxyphenyl)naphthalen-1-yl]methyl]piperazin-1-yl]pyridazine-3-carboxamide] was tested, and the “ASMS ratio (%)” value (n = 1) was 0.0% and the “ASMS ratio (%)” value (n = 2) was 0.0%.

With `CCOc1cncc(-c2ccc(CN3CCN(c4ccc(C(=O)NS(=O)(=O)C(C)(C)C)nn4)CC3)c3ccccc23)c1` [B2L092-01, N-tert-Butylsulfonyl-6-[4-[[4-(5-ethoxypyridin-3-yl)naphthalen-1-yl]methyl]piperazin-1-yl]pyridazine-3-carboxamide] the “ASMS ratio (%)” value (n = 1) was 5.5% and the “ASMS ratio (%)” value (n = 2) was 7.8%.

For `CCOc1cccc(-c2csc(CN3CCN(c4ccc(C(=O)NS(=O)(=O)C(C)(C)C)nn4)CC3)c2)c1` [B2L093-01, N-tert-Butylsulfonyl-6-[4-[[4-(3-ethoxyphenyl)thiophen-2-yl]methyl]piperazin-1-yl]pyridazine-3-carboxamide], the “ASMS ratio (%)” value (n = 2) was 0.0%.

For `CCOc1cncc(-c2csc(CN3CCN(c4ccc(C(=O)NS(=O)(=O)C(C)(C)C)nn4)CC3)c2)c1` [B2L094-01, N-tert-Butylsulfonyl-6-[4-[[4-(5-ethoxypyridin-3-yl)thiophen-2-yl]methyl]piperazin-1-yl]pyridazine-3-carboxamide], the “ASMS ratio (%)” value (n = 1) was 0.2% and the “ASMS ratio (%)” value (n = 2) was 1.8%.

With `CCOc1cccc(C#Cc2ccccc2CN2CCN(c3ccc(C(=O)NS(=O)(=O)C(C)(C)C)nn3)CC2)c1` [B2L095-01, N-tert-Butylsulfonyl-6-[4-[[2-[2-(3-ethoxyphenyl)ethynyl]phenyl]methyl]piperazin-1-yl]pyridazine-3-carboxamide] the “ASMS ratio (%)” value (n = 1) was 0.0% and the “ASMS ratio (%)” value (n = 2) was 0.0%.

For `CCOc1cncc(C#Cc2ccccc2CN2CCN(c3ccc(C(=O)NS(=O)(=O)C(C)(C)C)nn3)CC2)c1` [B2L096-01, N-tert-Butylsulfonyl-6-[4-[[2-[2-(5-ethoxypyridin-3-yl)ethynyl]phenyl]methyl]piperazin-1-yl]pyridazine-3-carboxamide], the “ASMS ratio (%)” value (n = 1) was 0.0% and the “ASMS ratio (%)” value (n = 2) was 0.0%.

In the case of `CCOc1cccc(-c2ccc(C(C)N3CCN(c4ccc(C(=O)NS(=O)(=O)C(C)(C)C)cc4)CC3)cc2)c1` (stereo not shown) [B2L097-01, N-tert-Butylsulfonyl-4-[4-[1-[4-(3-ethoxyphenyl)phenyl]ethyl]piperazin-1-yl]benzamide], the “ASMS ratio (%)” value (n = 1) is reported as 0.0% and the “ASMS ratio (%)” value (n = 2) is reported as 0.0%.

For `CCOc1cncc(-c2ccc(C(C)N3CCN(c4ccc(C(=O)NS(=O)(=O)C(C)(C)C)cc4)CC3)cc2)c1` (stereo not shown) [B2L098-01, N-tert-Butylsulfonyl-4-[4-[1-[4-(5-ethoxypyridin-3-yl)phenyl]ethyl]piperazin-1-yl]benzamide], the “ASMS ratio (%)” value (n = 1) was 3.9% and the “ASMS ratio (%)” value (n = 2) was −5.0%.

`CCOc1cncc(-c2ccc(C(C)N3CCN(c4ccc(C(=O)NS(=O)(=O)C(C)(C)C)cc4)CC3)c(F)c2)c1` (stereo not shown) [B2L100-01, N-tert-Butylsulfonyl-4-[4-[1-[4-(5-ethoxypyridin-3-yl)-2-fluorophenyl]ethyl]piperazin-1-yl]benzamide] was tested, and the “ASMS ratio (%)” value (n = 1) was 0.0% and the “ASMS ratio (%)” value (n = 2) was 0.0%.

With `CCOc1cccc(-c2csc(C(=O)N3CCN(c4ccc(C(=O)NS(=O)(=O)CCC(F)(F)F)nn4)CC3)c2)c1` [B2N001-01, 6-[4-[4-(3-Ethoxyphenyl)thiophene-2-carbonyl]piperazin-1-yl]-N-(3,3,3-trifluoropropylsulfonyl)pyridazine-3-carboxamide] the “ASMS ratio (%)” value (n = 2) was 0.0%.
